Experimental data reported in US20260285853A1, “COMPOUNDS AND METHODS FOR MODULATING SPLICING” (REMIX THERAPEUTICS INC., priority 2023, published 2026).
Like-named read-outs stand apart in the source and are kept apart here.

Assays:
Format in all cases: cell-based
[1] = tested on: SH-SY5Y (human neuroblastoma) cells; test: Cell viability, Cell Titer Glo 2.0 assay; conditions: read-out: Viability SHSY5Y.3 GI50
Procedure, shortened: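 Viability was read by CellTiter-Glo 2.0 luminescence after a 72-hour compound exposure at 37° C. under 5% CO2. Cells were in IMDM plus 10% FBS containing 0.1% DMSO, and medium-only wells gave the blank.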

[2] = tested on: MYB mRNA; test: Splicing RT-qPCR assay (THP), Table 2A
[3] = tested on: HTT mRNA; test: Splicing RT-qPCR assay (THP), Table 2A
[4] = tested on: MYB mRNA; test: Gene panel canonical junction qPCR assay, decrease in CJ mRNA, Table 3
Procedure, shortened: (§1)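 IC50 denotes the concentration giving 50% decrease in canonical-junction mRNA, fitted by 4-parameter logistic to percentage response derived from ΔΔCt versus housekeeping gene and DMSO control. Cells (A673 or K562) exposed 24 h to 11-point 3-fold serial dilutions from 10 uM top, DMSO ≤0.25%; junction-spanning primer/probe qPCR.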

[5] = tested on: HTT mRNA; test: as above
Procedure, shortened: as §1

[6] = Table 2A, THP, MYB alternative junction (AJ) mRNA, read-out: MYB AJ (AC50, increase in alternative junction mRNA)
[7] = Table 2A, THP, MYB canonical junction (CJ) mRNA, read-out: MYB CJ (IC50, decrease in canonical junction mRNA)
[8] = Table 2A, THP, HTT alternative junction (AJ) mRNA, read-out: HTT AJ (AC50, increase in alternative junction mRNA)
[9] = Table 2A, THP, HTT canonical junction (CJ) mRNA, read-out: HTT CJ (IC50, decrease in canonical junction mRNA)
[10] = decrease in CJ mRNA levels, canonical junction qPCR, gene panel
[11] = Table 2A (THP), AJ mRNA increase, read-out: MYB AJ (increase in alternative junction mRNA, AC50)
[12] = Table 2A (THP), CJ mRNA decrease, read-out: MYB CJ (decrease in canonical junction mRNA, IC50)
[13] = Table 2A (THP), AJ mRNA increase, read-out: HTT AJ (increase in alternative junction mRNA, AC50)
[14] = Table 2A (THP), CJ mRNA decrease, read-out: HTT CJ (decrease in canonical junction mRNA, IC50)
[15] = decrease in canonical junction (CJ) mRNA, gene panel qPCR, Table 3

| GI50 [1] | IC50 [2, 7] | IC50 [3, 9] | IC50 [4, 10] | IC50 [5, 10] | IC50 [2, 12] | IC50 [3, 14] | IC50 [4, 15] | IC50 [5, 15] | SMILES | AC50 [2, 6] | AC50 [3, 8] | AC50 [2, 11] | AC50 [3, 13] |
| --- | --- | --- | --- | --- | --- | --- | --- | --- | --- | --- | --- | --- | --- |
| 1 to 10 µM | > 10 µM | > 10 µM | > 10 µM | > 10 µM | – | – | – | – | Cc1cn2cc(NC(=O)c3ccc(N4CCC(NC5CC5)CC4)c4cn(C)nc34)nc2c(Cc2cnc(Cl)s2)n1 [Compound 781] | > 10 µM | > 10 µM | – | – |
| 1 to 10 µM | > 10 µM | > 10 µM | > 10 µM | > 10 µM | – | – | – | – | Cc1cn2cc(NC(=O)c3ccc(N4CCC(NC5CC5)CC4)c4cn(C)nc34)nc2c(CN2CCCCS2(=O)=O)n1 [Compound 795] | > 10 µM | > 10 µM | – | – |
| 0.1 to 1 µM | 0.1 to 1 µM | 1 to 10 µM | 0.1 to 1 µM | 1 to 10 µM | – | – | – | – | Cc1cc2c(N3CCC(NC4CC4)CC3)ccc(C(=O)Nc3cc(CO)c4nn(C)cc4c3)n2n1 [Compound 858] | 0.1 to 1 µM | 1 to 10 µM | – | – |
| > 10 µM | – | – | – | – | > 10 µM | > 10 µM | > 10 µM | > 10 µM | CCNC1CCN(c2ccc(C(=O)Nc3ccn(-c4ccncn4)n3)c3nn(C)cc23)CC1 [Compound 363, 4-(4-(ethylamino)-piperidin-1-yl)-2-methyl-N-(1-(pyrimidin-4-yl)-1H-pyrazol-3-yl)-2H-indazole-7-carboxamide 2,2,2-trifluoroacetate] | – | – | > 10 µM | > 10 µM |
| 1 to 10 µM | > 10 µM | > 10 µM | > 10 µM | > 10 µM | – | – | – | – | Cc1cn2nc(NC(=O)c3ccc(N4CCC(NC5CC5)CC4)c4cn(C)nc34)cc(CNS(C)(=O)=O)c2n1 [Compound 842] | > 10 µM | > 10 µM | – | – |
| > 10 µM | > 10 µM | > 10 µM | > 10 µM | > 10 µM | – | – | – | – | Cc1cn2cc(NC(=O)c3ccc(N4C[C@@H](C)N[C@@H](C)C4)c4c3OC(C)(C)O4)cc(F)c2n1 [Compound 656, 7-[(3S,5R)-3,5-dimethylpiperazin-1-yl]-N-(8-fluoro-2-methyl-imidazo[1,2-a]-pyridin-6-yl)-2,2-dimethyl-1,3-benzodioxole-4-carboxamide] | > 10 µM | > 10 µM | – | – |
| 0.1 to 1 µM | < 0.1 µM | > 10 µM | < 0.1 µM | > 10 µM | – | – | – | – | COc1nc2c(C(=O)Nc3cc(C#N)c4nc(C)cn4c3)ccc(N3C[C@H](C)N[C@@H](C)C3)c2s1 [Compound 758, N-(8-cyano-2-methyl-imidazo[1,2-a]pyridin-6-yl)-7-[(3S,5S)-3,5-dimethylpiperazin-1-yl]-2-methoxy-1,3-benzothiazole-4-carboxamide] | < 0.1 µM | > 10 µM | – | – |
| 1 to 10 µM | – | – | – | – | 1 to 10 µM | > 10 µM | 1 to 10 µM | > 10 µM | CCNC1CCN(c2cc(Cl)c(C(=O)Nc3cn4cc(C)nc(C)c4n3)c3nn(C)cc23)CC1 [Compound 348, 6-chloro-N-(6,8-dimethylimidazo-[1,2-a]pyrazin-2-yl)-4-[4-(ethylamino)-1-piperidyl]-2-methyl-indazole-7-carboxamide] | – | – | 0.1 to 1 µM | > 10 µM |
| > 10 µM | > 10 µM | > 10 µM | – | – | – | – | > 10 µM | > 10 µM | Cc1cn2cc(NC(=O)c3ccc(N4CCCC(OC5CNC5)C4)c4cn(C)nc34)nc2c(C)n1 (centres unmarked) [Compound 601] | 1 to 10 µM | > 10 µM | – | – |
| 0.1 to 1 µM | < 0.1 µM | 0.1 to 1 µM | < 0.1 µM | 0.1 to 1 µM | – | – | – | – | COc1nc2nc(C)cn2cc1NC(=O)c1cnc(N2CCC(NC3CC3)CC2)c2cn(C)nc12 [Compound 608, 4-[4-(cyclopropylamino)-1-piperidyl]-N-(7-methoxy-2-methyl-imidazo[1,2-a]-pyrimidin-6-yl)-2-methyl-pyrazolo-[4,3-c]pyridine-7-carboxamide] | < 0.1 µM | < 0.1 µM | – | – |
| > 10 µM | – | – | – | – | > 10 µM | > 10 µM | > 10 µM | > 10 µM | Cc1cn2cc(NC(=O)c3c(F)cc(N4CCC(NC5CC5)CC4)c4cn(C)nc34)cc(Oc3cn[nH]c3)c2n1 [Compound 410, N-(8-((1H-pyrazol-4-yl)oxy)-2-methylimidazo[1,2-a]-pyridin-6-yl)-4-(4-(cyclopropylamino)piperidin-1-yl)-6-fluoro-2-methyl-2H-indazole-7-carboxamide 2,2,2-trifluoroacetate] | – | – | > 10 µM | > 10 µM |
| 0.1 to 1 µM | < 0.1 µM | 1 to 10 µM | < 0.1 µM | 1 to 10 µM | – | – | – | – | COc1nc2c(C(=O)Nc3cc(F)c4nn(C)cc4c3)ccc(N3C[C@@H](C)N(C)[C@@H](C)C3)c2s1 [Compound 744, N-(7-fluoro-2-methyl-indazol-5-yl)-2-methoxy-7-[(3R,5S)-3,4,5-trimethylpiperazin-1-yl]-1,3-benzothiazole-4-carboxamide] | < 0.1 µM | 0.1 to 1 µM | – | – |
| < 0.1 µM | < 0.1 µM | 0.1 to 1 µM | < 0.1 µM | 0.1 to 1 µM | – | – | – | – | COc1nc2c(C(=O)Nc3ccc4nn(C)cc4c3F)ccc(N3C[C@H](C)N[C@@H](C)C3)c2s1 [Compound 727, 7-((3S,5S)-3,5-dimethylpiperazin-1-yl)-N-(4-fluoro-2-methyl-2H-indazol-5-yl)-2-methoxybenzo[d]thiazole-4-carboxamide 2,2,2-trifluoroacetate] | < 0.1 µM | 0.1 to 1 µM | – | – |
| 0.1 to 1 µM | – | – | – | – | < 0.1 µM | 1 to 10 µM | < 0.1 µM | 1 to 10 µM | CCNC1(C)CCN(c2cc(F)c(C(=O)Nc3cn4cc(C)nc(C)c4n3)c3nn(C)cc23)CC1 [Compound 375, N-(6,8-dimethylimidazo[1,2-a]pyrazin-2-yl)-4-[4-(ethylamino)-4-methyl-1-piperidyl]-6-fluoro-2-methyl-indazole-7-carboxamide] | – | – | < 0.1 µM | 1 to 10 µM |
| > 10 µM | – | – | – | – | > 10 µM | > 10 µM | > 10 µM | > 10 µM | CCNC1CCN(c2ccc(C(=O)Nc3cc(C(N)=O)c4nc(C)cn4c3)c3nn(C)cc23)CC1 [Compound 317, N-(8-carbamoyl-2-methylimidazo[1,2-a]pyridin-6-yl)-4-(4-(ethylamino)piperidin-1-yl)-2-methyl-2H-indazole-7-carboxamide 2,2,2-trifluoroacetate] | – | – | > 10 µM | > 10 µM |
| > 10 µM | > 10 µM | > 10 µM | > 10 µM | > 10 µM | – | – | – | – | Cc1cn2cc(NC(=O)c3ccc(N4CCC(NC5CC5)CC4)c4cn(C)nc34)nc2c(CN2CCCS2(=O)=O)n1 [Compound 774, 4-[4-(cyclopropylamino)-1-piperidyl]-N-[8-[(1,1-dioxo-1,2-thiazolidin-2-yl)methyl]-6-methyl-imidazo[1,2-a]pyrazin-2-yl]-2-methyl-indazole-7-carboxamide] | > 10 µM | > 10 µM | – | – |
| > 10 µM | – | – | – | – | > 10 µM | > 10 µM | > 10 µM | > 10 µM | COc1cc2nn(C)cc2c(Cl)c1NC(=O)c1c(F)cc(N2CCC(NC3CC3)CC2)c2cn(C)nc12 [Compound 445, N-(4-chloro-6-methoxy-2-methyl-indazol-5-yl)-4-[4-(cyclopropylamino)-1-piperidyl]-6-fluoro-2-methyl-indazole-7-carboxamide 2,2,2-trifluoroacetate] | – | – | > 10 µM | > 10 µM |
| > 10 µM | 1 to 10 µM | 1 to 10 µM | 1 to 10 µM | 1 to 10 µM | – | – | – | – | Cn1cc2cc(NC(=O)c3ccc(N4CCC(NC5CC5)CC4)c4cn(C)nc34)cc(CCNS(C)(=O)=O)c2n1 [Compound 840] | 1 to 10 µM | > 10 µM | – | – |
| 1 to 10 µM | – | – | – | – | > 10 µM | > 10 µM | > 10 µM | > 10 µM | COc1cc2nccn2cc1NC(=O)c1ccc(N2CCC(NC3CC3)CC2)c2cn(C)nc12 [Compound 574, 4-[4-(cyclopropylamino)-1-piperidyl]-N-(7-methoxy-imidazo[1,2-a]pyridin-6-yl)-2-methylindazole-7-carboxamide] | – | – | > 10 µM | > 10 µM |
| 0.1 to 1 µM | – | – | – | – | 0.1 to 1 µM | 0.1 to 1 µM | 0.1 to 1 µM | 0.1 to 1 µM | CCNC1CCN(c2cc(F)c(C(=O)Nc3cn4cc(C#N)nc(C)c4n3)c3nn(C)cc23)CC1 [Compound 359, N-(6-cyano-8-methyl-imidazo-[1,2-a]pyrazin-2-yl)-4-[4-(ethylamino)-1-piperidyl]-6-fluoro-2-methyl-indazole-7-carboxamide] | – | – | 0.1 to 1 µM | 0.1 to 1 µM |
